Data taken from patent publication US12162836B2, “N-acyl-{4-[(4-aryl-phenyl)sulfonylmethyl]piperidine} compounds and their therapeutic use” (Modern Biosciences Limited, priority 2019, dated 2024).
Values after ≈ are worked out from the molar mass of the structure shown.

Assays:
[1] = tested on: collagen-induced arthritis in DBA/1j mice; test: Mouse Collagen-Induced Arthritis; type: in vivo; conditions: 10 mg/kg/day, once daily for 14 days, oral gavage; arthritic index vs control
Procedure: Seven- to eight-week-old male DBA/1j mice were used for all procedures. Animals were housed in groups of 10, and were maintained at 21° C.±2° C. on a 12-hour light/dark cycle with food and water ad libitum. Complete Freund's adjuvant (CFA) was prepared by emulsifying bovine type II collagen at 4 mg/mL with a 4 mg/mL suspension of Mycobacterium tuberculosis H37Ra in Incomplete Freund's Adjuvant (IFA) (0.85 mL paraffin oil and 0.15 mL mannide monooleate) in a 1:1 (v/v) ratio. All mice were immunised subcutaneously with 200 μg of bovine type II collagen in CFA. 21 days later, all mice were immunised subcutaneously with 100 μg of bovine type II collagen in IFA. The mice started to develop signs and symptoms of arthritis following the ‘booster’ immunisation.
For macroscopic assessment of arthritis, the following signs were monitored in each paw of each mouse three times per week and summed to generate the Arthritic Index (A1) (the maximum A1 for one animal is 16): • 0=no visible effects of arthritis. • 1=oedema and/or erythema of 1 digit. • 2=oedema and/or erythema of 2 digits. • 3=oedema and/or erythema of more than 2 digits. • 4=severe arthritis of entire paw and digits.
Animals were sorted into treatment groups with a mean arthritic index of 2.5 and then dosed once daily for 14 days with compound: by oral gavage for test compounds, or by subcutaneous injection at a dose of 10 mg/kg for the positive control, etanercept. After completion of the experiment, the mice were sacrificed.
The data were analysed by generating an average of the arthritic index across each treatment group. The mean arthritic index was then compared to the arthritic index of control (untreated) animals using the following formula to generate a percentage inhibition of disease.

[2] = tested on: Thp1 human monocytic cells; test: Thp1 Monocyte ATP Production Assay (ATPlite); type: cell-based; conditions: Homo sapiens, THP-1, Thp1 cells, 24 hour incubation, mean of 2 independent experiments
Procedure: In vitro potency of test compounds was determined by incubation with Thp1 human monocytic cells and subsequent determination of Adenosine TriPhosphate (ATP) levels using firefly luciferase.
ATP is present in all metabolically active cells. When cells lose integrity, their ability to synthesise ATP is rapidly lost. […] See, e.g., Kang et al., 2015; Jiang et al., 2013. Levels of ATP can be monitored using a system based on firefly (Photinus pyralis) luciferase (see, e.g., Auld et al., 2009) using commercially available kits. A system known as ATPlite™ was using to measure effects of the test compounds on cellular viability in vitro. This one-step assay system is an adenosine triphosphate (ATP) monitoring system based on the production of light caused by the reaction of ATP from the cells with added luciferase and D-luciferin, as illustrated in the reaction scheme below:
Thp1 cells were plated at 112500 cells per well in 125 μL RPMI-1640 (no glucose) with 1% FBS in 96-well plates. Test compounds were prepared as 100 mM solutions in DMSO. These stock solutions were diluted in DMSO and then diluted 1000× in culture medium (RPMI) before being added directly to the wells so as to give the desired final compound concentration. After a 24 hour incubation at 37° C./5% CO2, ATPLite™ (Perkin Elmer) was added to each well (1:10 v/v, 10 μL). The plate was then incubated at room temperature for 5 minutes and the emitted light was quantified on Viewlux with a measurement time of 0.3 seconds and binning 4×4.
The average results for each test compound were expressed as a percent (%) of the average control value reflecting cell viability. The average values across the concentrations tested were then plotted and the IC50 for was calculated by fitting the data to a 4-parameter IC50 equation using software from Graf it (Erithacus Software). Each experiment was repeated twice and the data are presented as the mean IC50 from both experiments.

[3] = Human Hepatocyte Stability; type: in vitro ADME; conditions: pooled human hepatocytes, 1 μM, 60 minute incubation; for half-life at 1 μM: read-out: Human t1/2
Procedure: (§1) Metabolic stability of test compounds was measured by determination of the rate of disappearance of the compound when incubated in the presence of human hepatocytes, a primary source of the most important enzymes (cytochrome P450s) involved in drug metabolism. Study of drug stability in the presence of primary hepatocytes is accepted as a valuable model permitting rapid prediction of in vivo drug stability.
(§2) Human hepatocytes were obtained from a commercial source and viability was assessed using a trypan blue solution prior to use. Test compounds (final concentration 1 μM, 0.1 DMSO, 0.9% acetonitrile) or a marker (diclofenac or diltiazem, final assay concentration 1 μM, 0.1% DMSO, 0.9% acetonitrile) were incubated with pooled hepatocytes for a 60 minute period and samples removed at up to 6 time points and analysed by LC-MS/MS for the presence/amount of test compounds.
(§3) Each compound was incubated for 0, 5, 15, 30, 45, or 60 minutes. The reactions were stopped by the addition of methanol containing an internal standard (1 μM Tolbutamide) at the appropriate time points, mixed and placed at −20° C. for 1 hour to quench and allow protein to precipitate. All samples were centrifuged (2500× g, 20 minutes, 4° C.). The aliquots were analysed using LC-MS/MS. Reactions were performed in duplicate at 37° C.
(§4) Data were processed, and the results plotted as In(concentration) vs. time. The elimination rate constant (slope of the regression line, k) was calculated using the following formula, where C(t) is the concentration at time t and C(0) is the starting concentration:
(§5) The half-life (t1/2) was calculated using the following formula: […]
(§6) The intrinsic clearance (Clint) was calculated using the following formula, where [cell] is the hepatocyte concentration in the assay: […]

human hepatocytes = test: Human Hepatocyte Stability; type: in vitro ADME; conditions: human hepatocytes
Procedure: as §1, §2, §3, §4, §5, §6

[4] = Aqueous solubility in FaSSIF; type: physicochemical; conditions: for solubility at 16 h: kinetic from dmso stock, pH 6.5, 16 hours, room temperature
Procedure: Aqueous solubility was measured by equilibration of compounds with fasted state simulated intestinal fluid (FaSSIF) and quantified spectrophotometrically.
Preparation of blank FaSSIF: 0.21 g of sodium hydroxide (NaOH) pellets, 1.97 g of dihydrogen sodium phosphate (NaH2PO4.2H2O) and 3.09 g of sodium chloride (NaCl) were dissolved in 400 mL of deionised water. The pH was adjusted to 6.5 using 1 M hydrochloric acid and further deionised water added to a final volume of 500 mL.
Preparation of FaSSIF: 0.056 g of SIF Powder (containing sodium taurocholate and lecithin) (Pharses A G) was dissolved in 25 mL of blank FaSSIF and stirred until the powder was completely dissolved. The solution was allowed to stand for 2 hours during which it became opalescent; it was used within 24 hours. The final solution composition was characterised as follows: • Sodium taurocholate: 3 mM • Lecithin: 0.75 mM • Osmolarity: 270±10 mOsmol • pH: 6.5
The optical density was measured at the end of the incubation period for test compounds and a reference used to determine solubility. In brief, two samples were prepared for each determination: a reference sample consisting of a stock solution of test compound in DMSO diluted in system solution (a phosphate free, low absorption buffer) and propanol; and a test sample (prepared in triplicate) consisting of 0.5 mL FaSSIF spiked with test compound at 0.2 mM. Each sample was incubated at room temperature for 16 hours with constant shaking at 250 rpm. At the end of the incubation period, 0.3 mL of each sample was filtered through a pION filter plate (PION, Woburn MA), diluted 1:1 with propanol and scanned using UV spectrophotometry at Amax ([…]) using a Spectra Max Plus—Version 2.1000 (Molecular Devices, Sunnyvale, CA), with pSOL Explorer solubility determination software (pION, Woburn, MA).
FaSSIF solubility was calculated using the following formula:
[formula] • wherein: • “OD” is the optical density; • “Cr” is the concentration of the reference (33.4 μM); and • “molecular weight” is for the test compound (e.g., 381.44 for ABD735).

hERG = hERG (Homo sapiens (Human), UniProt Q12809); test: hERG Ion Channel binding assay (3H astemizole displacement); conditions: human, membranes of HEK293 cells stably expressing hERG, pH 7.4, probe 3H astemizole (1.5 nM); 30 μM; displacement of 3H astemizole, hERG-HEK293 membranes
Sequence of hERG (Q12809 whole entry): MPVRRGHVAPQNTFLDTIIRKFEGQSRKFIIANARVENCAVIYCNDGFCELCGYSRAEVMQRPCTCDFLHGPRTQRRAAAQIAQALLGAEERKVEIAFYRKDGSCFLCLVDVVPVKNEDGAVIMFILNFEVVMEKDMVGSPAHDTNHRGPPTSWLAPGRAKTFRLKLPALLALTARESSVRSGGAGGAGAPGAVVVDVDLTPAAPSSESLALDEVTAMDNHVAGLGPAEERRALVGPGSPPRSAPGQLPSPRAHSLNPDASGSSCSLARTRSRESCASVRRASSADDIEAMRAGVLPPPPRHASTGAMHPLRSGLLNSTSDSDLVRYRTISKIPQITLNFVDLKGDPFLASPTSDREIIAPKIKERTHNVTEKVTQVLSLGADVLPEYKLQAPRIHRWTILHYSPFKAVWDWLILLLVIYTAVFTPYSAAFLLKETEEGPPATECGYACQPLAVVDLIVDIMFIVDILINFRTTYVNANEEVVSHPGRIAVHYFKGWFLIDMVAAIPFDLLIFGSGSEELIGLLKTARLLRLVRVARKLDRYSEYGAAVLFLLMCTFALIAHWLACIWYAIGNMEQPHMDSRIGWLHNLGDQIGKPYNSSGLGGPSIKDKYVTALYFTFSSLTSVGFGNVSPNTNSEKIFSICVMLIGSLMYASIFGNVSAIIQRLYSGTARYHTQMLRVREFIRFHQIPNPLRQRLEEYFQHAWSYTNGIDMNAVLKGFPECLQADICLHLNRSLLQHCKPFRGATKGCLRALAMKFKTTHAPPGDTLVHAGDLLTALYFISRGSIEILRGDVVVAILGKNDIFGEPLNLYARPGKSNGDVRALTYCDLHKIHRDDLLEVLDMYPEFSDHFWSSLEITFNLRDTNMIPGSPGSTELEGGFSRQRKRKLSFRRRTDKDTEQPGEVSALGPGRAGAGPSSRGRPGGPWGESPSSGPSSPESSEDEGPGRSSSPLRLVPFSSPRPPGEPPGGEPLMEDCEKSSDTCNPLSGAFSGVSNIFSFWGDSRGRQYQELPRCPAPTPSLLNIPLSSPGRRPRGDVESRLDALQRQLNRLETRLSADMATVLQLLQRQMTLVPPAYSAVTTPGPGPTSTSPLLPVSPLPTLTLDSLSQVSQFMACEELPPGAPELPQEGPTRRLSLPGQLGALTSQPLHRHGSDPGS
Procedure: (§7) The activity of the compounds against the hERG ion channel was tested using a binding assay in stably transfected Human Embryonic Kidney cells (hERG-HEK293). hERG-HEK293 cells were cultured in MEM medium (Invitrogen)+10% FBS, glutamine and non-essential amino acids at 37° C. To prepare membranes, cells were homogenised on ice, centrifuged at 650×g for 10 minutes at +4° C., and the resulting supernatant centrifuged at 48000×g for 10 minutes at +4° C. The pellet was resuspended in ice-cold 50 mM Tris-HCl buffer, 5 mM KCl (pH 8.5) and stored frozen in aliquots until use.
(§8) For binding assays, membranes were thawed, re-suspended in assay buffer (10 mM HEPES pH 7.4, 0.1% BSA, 5 mM potassium chloride, 0.8 mM magnesium chloride, 130 mM sodium chloride, 1 mM sodium-EGTA, 10 mM glucose) and incubated with ^3H astemizole (1.5 nM), and with or without test compound at 25° C. for 60 minutes. Binding was determined following filtration of the membranes and washing in Tris-HCl buffer by scintillation counting of ^3H astemizole.
(§9) The degree of binding of compounds to the hERG ion channel (%) was obtained by measuring the binding of ^3H astemizole and its displacement by test compound. A value of 0% indicates no binding and a value of 100% indicates complete displacement of the radiolabelled ligand.

hERG ion channel = hERG ion channel (Homo sapiens (Human), UniProt Q12809); test: as above
Sequence of hERG ion channel (Q12809 whole entry): as above
Procedure: as §7, §8, §9

| SMILES | % inhibition of disease [1] | IC50 ([2]; 8-point concentration range from 100 μM to 100 nM) | hepatocyte CLint at 1 μM [3] | half-life at 1 μM [3] | metabolic stability (in words) (human hepatocytes) | solubility at 16 h [4] | inhibition at 60 min, 30 µM (hERG) | cardiac safety profile, hERG (in words) (hERG ion channel) | IC50 ([2]; 9-point concentration range from 10 μM to 10 nM) | solubility (in words) [4] |
| --- | --- | --- | --- | --- | --- | --- | --- | --- | --- | --- |
| C[C@]1(O)CC[C@@H](NS(=O)(=O)c2ccc(-c3ccc(Cl)cc3C#N)cc2)CC1 [HMC-C-01-B] | 26% |  |  |  |  |  |  |  |  |  |
| CC(=O)N1CCC(C(C)(C)S(=O)(=O)c2ccc(-c3ccc(F)cc3F)cc2)CC1 [NASMP-18, 1-(4-(2-((2′,4′-Difluoro-[1,1′-biphenyl]-4-yl)sulfonyl)propan-2-yl)piperidin-1-yl)ethan-1-one] |  | 28.5 µM | 3.8 µL/min/1e6 cells | 5.87 h | exceptionally good stability | 39 µg/mL (≈ 92.5 µM) | 14% | particularly positive profile |  |  |
| CC(=O)N1CCC(C2(S(=O)(=O)c3ccc(-c4ccc(F)cc4F)cc3)CC2)CC1 [NASMP-21, 1-(4-(1-((2′,4′-Difluoro-[1,1′-biphenyl]-4-yl)sulfonyl)cyclopropyl)piperidin-1-yl)ethan-1-one] |  |  | 13.4 µL/min/1e6 cells | 1.74 h |  | 71 µg/mL (≈ 169 µM) | 1% | particularly positive profile | 6.1 µM | particularly good solubility |
